Target: T1, glutaminase (GAC) (Homo sapiens, UniProt O94925)
T1 sequence (O94925 55-598 isoform O94925-3 limits assumed): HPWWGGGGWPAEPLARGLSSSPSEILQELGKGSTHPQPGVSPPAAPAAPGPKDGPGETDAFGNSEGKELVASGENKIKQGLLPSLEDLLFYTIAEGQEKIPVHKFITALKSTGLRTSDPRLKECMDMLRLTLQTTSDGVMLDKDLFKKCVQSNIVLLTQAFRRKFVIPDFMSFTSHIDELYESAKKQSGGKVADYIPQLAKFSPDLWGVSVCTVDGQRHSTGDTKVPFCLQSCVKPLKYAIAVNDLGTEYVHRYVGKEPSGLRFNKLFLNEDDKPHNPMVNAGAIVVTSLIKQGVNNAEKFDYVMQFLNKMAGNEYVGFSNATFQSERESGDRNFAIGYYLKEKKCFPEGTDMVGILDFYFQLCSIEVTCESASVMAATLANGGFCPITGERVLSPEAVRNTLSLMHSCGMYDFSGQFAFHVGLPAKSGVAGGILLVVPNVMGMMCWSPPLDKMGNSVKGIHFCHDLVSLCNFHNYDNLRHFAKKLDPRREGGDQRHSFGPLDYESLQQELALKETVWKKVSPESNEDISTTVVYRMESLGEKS
Assay: glutaminase coupled endpoint assay (Example A)
Type: biochemical
Details: inhibition of glutaminase; IC50 tested in an assay of Example A or Example B
Method: In this example, the enzymatic activity of glutaminase is measured through a coupled endpoint assay. […] The glutamate produced is converted to 2-OG by a kinetic excess of glutamate dehydrogenase. […] However, a kinetic excess of the third coupling enzyme, diaphorase, recycles NAD from NADH to keep the NAD concentration constant during the timecourse of the assay. Diaphorase, also supplied in kinetic excess, oxidizes NADH produced by GDH back to NAD with the concomitant reduction of rezasurin to the highly fluorescent resorufin. […] A reduction in the signal indicates inhibition of some component of the coupled enzyme system. Prospective hits are counterscreened against GDH/diaphorase alone to remove hits to the coupling enzyme system in a second assay.
2. […] Add 1 μl a compound in 100% DMSO 2. Add 40 μl of Enzyme Mix and incubate for 60 minute at room temperature 3. Add 10 μl of Substrate Mix to start reaction 4.

IC50 | SMILES
< 0.1 µM | COc1ccc(CC(=O)Nc2nnc(CCS(=O)(=O)CCc3nnc(NC(=O)Cc4ccc(OC)cc4)s3)s2)cc1 [Compound 31, N,N′-(5,5′-(2,2′-sulfonylbis(ethane-2,1-diyl))bis(1,3,4-thiadiazole-5,2-diyl))bis(2-(4-methoxyphenyl)acetamide)]
1 to 10 µM | O=C(Cc1ccccc1)Nc1nnc(CSCc2nnc(NC(=O)Cc3ccccc3)s2)s1 [Compound 32]
0.1 to 0.5 µM | O=C(CC1CCCCO1)Nc1nnc(CCS(=O)(=O)CCc2nnc(NC(=O)CC3CCCCO3)s2)s1 (stereo not drawn) [Compound 33, N,N′-(5,5′-(2,2′-sulfonylbis(ethane-2,1-diyl))bis(1,3,4-thiadiazole-5,2-diyl))bis(2-(tetrahydro-2H-pyran-2-yl)acetamide)]
< 0.1 µM | Cc1nc2ccc(C(=O)Nc3nnc(CCSCCc4nnc(NC(=O)c5ccc6nc(C)[nH]c6c5)s4)s3)cc2[nH]1 [Compound 34, N,N′-(5,5′-(2,2′-thiobis(ethane-2,1-diyl))bis(1,3,4-thiadiazole-5,2-diyl))bis(2-methyl-1H-benzo[d]imidazole-6-carboxamide)]
0.1 to 0.5 µM | O=C(CCc1cccnc1)Nc1nnc(CCS(=O)(=O)CCc2nnc(NC(=O)CCc3cccnc3)s2)s1 [Compound 35]
< 0.1 µM | NCCCOc1ccc(CC(=O)Nc2nnc(CCS(=O)(=O)CCc3nnc(NC(=O)Cc4ccccc4)s3)s2)cc1 [Compound 36, 2-(4-(3-aminopropoxy)phenyl)-N-(5-(2-((2-(5-(2-phenylacetamido)-1,3,4-thiadiazol-2-yl)ethyl)sulfonyl)ethyl)-1,3,4-thiadiazol-2-yl)acetamide]
0.1 to 0.5 µM | O=C(Cc1ccc(O)cc1)Nc1nnc(CCCCc2nnc(NC(=O)Cc3ccc(O)cc3)s2)s1 [Compound 38, N,N′-(5,5′-(butane-1,4-diyl)bis(1,3,4-thiadiazole-5,2-diyl))bis(2-(4-hydroxyphenyl)acetamide)]
< 0.1 µM | O=C(CCCC(=O)c1ccccc1)Nc1nnc(CCCCc2nnc(NC(=O)CCCC(=O)c3ccccc3)s2)s1 [Compound 40, N,N′-(5,5′-(butane-1,4-diyl)bis(1,3,4-thiadiazole-5,2-diyl))bis(5-oxo-5-phenylpentanamide)]
1 to 10 µM | Cn1c(=O)c2c(ncn2CC(=O)Nc2nnc(CCCCc3nnc(NC(=O)Cn4cnc5c4c(=O)n(C)c(=O)n5C)s3)s2)n(C)c1=O [Compound 41]
0.1 to 0.5 µM | Cc1cc(CC(=O)Nc2nnc(CCCCc3nnc(NC(=O)Cc4cc(C)no4)s3)s2)on1 [Compound 42, N,N′-(5,5′-(butane-1,4-diyl)bis(1,3,4-thiadiazole-5,2-diyl))bis(2-(3-methylisoxazol-5-yl)acetamide)]
0.1 to 0.5 µM | COc1ccc2c(c1)C(CC(=O)Nc1nnc(CCCCc3nnc(NC(=O)CC4CC(=O)c5ccc(OC)cc54)s3)s1)CC2=O (stereo not drawn) [Compound 43, N,N′-(5,5′-(butane-1,4-diyl)bis(1,3,4-thiadiazole-5,2-diyl))bis(2-(6-methoxy-3-oxo-2,3-dihydro-1H-inden-1-yl)acetamide)]
1 to 10 µM | Nc1nnc(CCCCc2nnc(NC(=O)CCc3ccccc3O)s2)s1 [Compound 44]
< 0.1 µM | O=C(CCc1ccccc1O)Nc1nnc(CCCCc2nnc(NC(=O)CCc3ccccc3O)s2)s1 [Compound 45]
0.1 to 0.5 µM | CN(CC(=O)Nc1nnc(CCCCc2nnc(NC(=O)CN(C)C(=O)OC(C)(C)C)s2)s1)C(=O)OC(C)(C)C [Compound 46, Di-tert-butyl 2,2′-(5,5′-(butane-1,4-diyl)bis(1,3,4-thiadiazole-5,2-diyl))bis(azanediyl)bis(2-oxoethane-2,1-diyl)bis(methylcarbamate)]
< 0.1 µM | O=C(Cc1ccccn1)Nc1nnc(CCCCc2nnc(NC(=O)Cc3ccccn3)s2)s1 [Compound 47, N,N′-(5,5′-(butane-1,4-diyl)bis(1,3,4-thiadiazole-5,2-diyl))bis(2-(pyridin-2-yl)acetamide)]
< 0.1 µM | O=C(Cc1ccccc1)Nc1nnc(CCSCc2nnc(NC(=O)Cc3ccccc3)s2)s1 [Compound 48]
0.1 to 0.5 µM | O=C(CCc1ccco1)Nc1nnc(CCCCc2nnc(NC(=O)CCc3ccco3)s2)s1 [Compound 49, N,N′-(5,5′-(butane-1,4-diyl)bis(1,3,4-thiadiazole-5,2-diyl))bis(3-(furan-2-yl)propanamide)]
0.1 to 0.5 µM | CC(C(=O)Nc1nnc(CCCCc2nnc(NC(=O)C(C)c3ccc(N4Cc5ccccc5C4=O)cc3)s2)s1)c1ccc(N2Cc3ccccc3C2=O)cc1 (stereo not drawn) [Compound 50, N,N′-(5,5′-(butane-1,4-diyl)bis(1,3,4-thiadiazole-5,2-diyl))bis(2-(4-(1-oxoisoindolin-2-yl)phenyl)propanamide)]
0.1 to 0.5 µM | O=C(Cc1cccc2ccccc12)Nc1nnc(CCCCc2nnc(NC(=O)Cc3cccc4ccccc34)s2)s1 [Compound 51, N,N′-(5,5′-(butane-1,4-diyl)bis(1,3,4-thiadiazole-5,2-diyl))bis(2-(naphthalen-1-yl)acetamide)]
0.1 to 0.5 µM | CC(C(=O)Nc1nnc(CCCCc2nnc(NC(=O)C(C)c3ccc(Cl)cc3)s2)s1)c1ccc(Cl)cc1 (stereo not drawn) [Compound 52, N,N′-(5,5′-(butane-1,4-diyl)bis(1,3,4-thiadiazole-5,2-diyl))bis(2-(4-chlorophenyl)propanamide)]
< 0.1 µM | COc1cccc(CCC(=O)Nc2nnc(CCCCc3nnc(NC(=O)CCc4cccc(OC)c4)s3)s2)c1 [Compound 53, N,N′-(5,5′-(butane-1,4-diyl)bis(1,3,4-thiadiazole-5,2-diyl))bis(3-(3-methoxyphenyl)propanamide)]
0.5 to 1 µM | O=C(CCc1cccnc1)Nc1nnc(CCCCc2nnc(NC(=O)CCc3cccnc3)s2)s1 [Compound 54, N,N′-(5,5′-(butane-1,4-diyl)bis(1,3,4-thiadiazole-5,2-diyl))bis(3-(pyridin-3-yl)propanamide)]
< 0.1 µM | O=C(Cc1ccc2c(c1)OCO2)Nc1nnc(CCCCc2nnc(NC(=O)Cc3ccc4c(c3)OCO4)s2)s1 [Compound 55, N,N′-(5,5′-(butane-1,4-diyl)bis(1,3,4-thiadiazole-5,2-diyl))bis(2-(benzo[d][1,3]dioxol-5-yl)acetamide)]
0.1 to 0.5 µM | O=C(Cc1ccccc1)Nc1nnc(CCS(=O)(=O)Cc2nnc(NC(=O)Cc3ccccc3)s2)s1 [Compound 56]
< 0.1 µM | O=C(Cc1ccccn1)Nc1nnc(CCSCc2nnc(NC(=O)Cc3ccccn3)s2)s1 [Compound 57]
1 to 10 µM | CC(=O)Oc1cccc(C(=O)Nc2nnc(CCCCc3nnc(NC(=O)c4cccc(OC(C)=O)c4C)s3)s2)c1C [Compound 58]
1 to 10 µM | O=C(CCN1CCCCC1)Nc1nnc(CCCCc2nnc(NC(=O)CCN3CCCCC3)s2)s1 [Compound 59]
< 0.1 µM | O=C(Cc1noc2ccccc12)Nc1nnc(CCCCc2nnc(NC(=O)Cc3noc4ccccc34)s2)s1 [Compound 60, N,N′-(5,5′-(butane-1,4-diyl)bis(1,3,4-thiadiazole-5,2-diyl))bis(2-(benzo[d]isoxazol-3-yl)acetamide)]
< 0.1 µM | COc1ccc2[nH]cc(CC(=O)Nc3nnc(CCCCc4nnc(NC(=O)Cc5c[nH]c6ccc(OC)cc56)s4)s3)c2c1 [Compound 61, N,N′-(5,5′-(butane-1,4-diyl)bis(1,3,4-thiadiazole-5,2-diyl))bis(2-(5-methoxy-1H-indol-3-yl)acetamide)]
0.1 to 0.5 µM | CC(CC(=O)c1ccccc1)C(=O)Nc1nnc(CCCCc2nnc(NC(=O)C(C)CC(=O)c3ccccc3)s2)s1 (stereo not drawn) [Compound 62, N,N′-(5,5′-(butane-1,4-diyl)bis(1,3,4-thiadiazole-5,2-diyl))bis(2-methyl-4-oxo-4-phenylbutanamide)]

Source: patent US10414740B2, “Glutaminase inhibitors and method of use” (Agios Pharmaceuticals, Inc., priority 2012, dated 2019)
